Data reported in patent US9457029B2, “Treatment of genotyped diabetic patients with DPP-IV inhibitors such as linagliptin” (Boehringer Ingelheim International GmbH, priority 2009, dated 2016).

Experiments:
[1] = system: inadequately controlled, metformin-treated type 2 diabetic patients; experiment: 12-week randomized, double-blind study of BI 1356 add-on to metformin vs placebo or open label glimepiride; type: in vivo, human
Protocol: Efficacy and safety of BI 1356 (1, 5, or 10 mg qd), a potent and selective dipeptidyl peptidase-4 (DPP-4) inhibitor, was examined in inadequately controlled, metformin-treated (MET, ≧1 g daily) type 2 diabetic patients (T2DM; HbA1c at baseline 7.5-10.0%). Effects were compared to add-on of placebo (PBO) or of open label glimepiride (GLIM; 1 to 3 mg qd) in a 12-week randomized, double-blind study. Antidiabetic medication other than metformin was washed out for 6 weeks (34.7% of the patients).
The primary endpoint was change from baseline in HbA1c, adjusted for prior antidiabetic medication. 333 patients (mean baseline HbA1c 8.3%; fasting plasma glucose [FPG] 185 mg/dL) were randomized to BI 1356, PBO or open-label GLIM. […] Reductions in FPG from baseline to Week 12 with BI 1356 were statistically significant (1 mg, −19 mg/dL; 5 mg, −35 mg/dL; 10 mg, −30 mg/dL). […] For this dose, >80% DPP-4 inhibition at trough in >80% of the patients at week 12 was achieved.
In total, 106 patients (43.1%) experienced adverse events (AEs) with similar incidences across all treatments. Most frequently reported episodes were nasopharyngitis (7.5%), diarrhoea (3.3%), and nausea (3.0%). […] Ten patients (3.7%) experienced serious AEs but none of these events were considered drug-related.

[2] = system: patients with type 2 diabetes mellitus and insufficient glycemic control; type: in vivo, human
Protocol: A multi-center, 24-week, randomized, double-blind, placebo-controlled, parallel group study investigates the efficacy and safety of initial combination therapy with the DPP-4 inhibitor linagliptin (LI) and pioglitazone (PIO). […] Mean baseline characteristics (HbA1c 8.6%; fasting plasma glucose [FPG] 190 mg/dL; age 57.5 yrs; BMI 29.0 kg/m2) are similar between the groups. […] After 24 weeks of treatment, the adjusted mean change in HbA1c for the patients in the LI+ PIO group (full analysis set, last observation carried forward) is −1.06% (standard error (SE)±0.06). The difference in the adjusted mean HbA1c for the LI+ PIO group compared with PBO+PIO is −0.51% (p<0.0001; 95% confidence interval (CI), −0.71, −0.30). […] The proportion of patients that experienced at least one adverse event (AE) is similar for both LI+ PIO and PBO+PIO groups (136, 52.5% vs. 53.1%, respectively). Hypoglycemia is rare, occurring in 3 patients (1.2%) in the LI+ PIO group and none in the PBO+PIO group. All hypoglycemic events are of mild intensity.

[3] = system: Japanese patients with type 2 diabetes mellitus; settings: VB 0.2 mg tid
the diabetic = settings: metformin on its own; cited from earlier work
[4] = 5 mg LI plus 30 mg PIO qd or 30 mg PIO plus placebo qd, 24 weeks

CCC1=C(C)CN(C(=O)NCCc2ccc(S(=O)(=O)NC(=O)N[C@H]3CC[C@H](C)CC3)cc2)C1=O [GLIM, glimepiride, reference compound]
drug-related hypoglycaemia, number of patients ([1]; GLIM 1 to 3 mg qd add-on to metformin, 12 weeks): 3 patients
mean PBO corrected reduction in HbA1c ([1]; open label GLIM 1 to 3 mg qd add-on to metformin, Week 12): −0.90%

CCc1ccc(CCOc2ccc(CC3SC(=O)NC3=O)cc2)nc1 (stereo not drawn) [PBO+PIO, pioglitazone]
patients achieving a reduction in HbA1c of ≧0.5% [2, 4]: 50.8%
patients achieving a target HbA1c of <7% [2, 4]: 30.5%
hypoglycemia, number of patients ([2]; in vivo): none
proportion of patients that experienced at least one adverse event (AE) ([2]; in vivo): 53.1%

OCC(CO)N[C@H]1C[C@](O)(CO)[C@@H](O)[C@H](O)[C@H]1O [VB, voglibose, reference compound]
proportion of patients whose HbA1c level lowered by ≧0.5% ([3]; 26 weeks): 37.7%
proportion of patients achieving HbA1c<7.0% ([3]; after 26 weeks): 22.2%

CN(C)C(=N)N=C(N)N [metformin]
average improvement in the HbA1c value (the diabetic): 1.0-1.5%
